# Measurements as given in patent publication US8946225B2, “Derivatives of 2H pyridazin-3-ones, their preparation and their use as SCD-1 inhibitors” (Pierre Fabre Medicament, priority 2009, dated 2015).
# What was measured:
# SCD-1 = target: T1, SCD-1 (Homo sapiens, UniProt O00767); experiment: Human enzymatic activity of SCD-1 from microsomes of HepG2 cells (conversion of [14C] stearic acid to oleic acid, HPLC); assay type: biochemical; conditions: microsomal fraction of HepG2 cells, 62 μM stearic acid, 20 minutes at 37° C., vs vehicle 0.1% DMSO; read-out: HSCD-1 (HEPG2) IC50
# T1 construct: addition of 125 μg of microsomal fraction of HepG2 cells; host or cells: HepG2 human hepatocarcinoma cells (microsomal fraction)
# T1 sequence (O00767 1-359): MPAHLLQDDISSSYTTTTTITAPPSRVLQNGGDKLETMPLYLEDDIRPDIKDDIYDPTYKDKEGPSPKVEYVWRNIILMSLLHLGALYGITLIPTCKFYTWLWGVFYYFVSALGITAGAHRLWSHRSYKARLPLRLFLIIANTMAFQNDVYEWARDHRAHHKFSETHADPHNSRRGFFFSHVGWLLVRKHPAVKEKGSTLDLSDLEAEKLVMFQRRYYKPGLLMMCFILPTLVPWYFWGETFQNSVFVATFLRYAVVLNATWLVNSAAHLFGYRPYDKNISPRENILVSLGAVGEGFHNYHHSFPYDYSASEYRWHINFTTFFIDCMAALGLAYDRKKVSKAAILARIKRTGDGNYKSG
# Procedure: In vitro: Human enzymatic activity of SCD-1 from microsomes of HepG2 cells after treatment with the inhibitor compounds (% inhibition).
# HepG2 cells of human hepatocarcinoma (ATCC, HB-8065) are cultured at confluence then trypsinated. The cell residue is solubilized in 10 mM Tris buffer (pH 7.4) sucrose (250 mM) DTT (1 mM) then the cells are lysed by sonication. The microsomes are obtained after centrifuging at 10,000 g for 20 minutes at 4° C. followed by centifrugation of the supernatant at 100,000 g for 60 minutes at 4° C. The residue is solubilized in 10 mM Tris buffer (pH 7.4) sucrose (250 mM) at 4° C. and the microsomal proteins are assayed and stored at −196° C. (liquid nitrogen).
# The enzymatic reaction measures the conversion of stearic acid (C18:0 fatty acid) into oleic acid (C18:1 fatty acid) by SCD-1. The enzymatic reaction is initiated by the addition of 125 μg of microsomal fraction of HepG2 cells to tubes (total reaction volume of 500 μl) containing 62 μM stearic acid (45 μM stearic acid and 17 μM [^14C] stearic acid) in 100 mM phosphate buffer (pH 7.16) with 7.2 mM ATP, 0.54 mM CoA, 6 mM MgCl2, 0.8 mM NADH and the inhibitor compound or vehicle (0.1% DMSO). The tubes are incubated for 20 minutes at 37° C. then the enzymatic reaction is halted by the addition of KOH (12%) and saponification for 30 minutes at 80° C. After acidification (3N HCl), the fatty acids are extracted twice with ethyl ether, evaporated under nitrogen before being solubilized in methanol/dichloromethane (3:1). The reaction product (C18:1) is separated from the reaction substrate (C18:0) by HPLC (Perkin Elmer, C18 reverse phase column) coupled with an in-line radioactivity detector (FlowOne). Enzymatic activity is measured in picomoles of stearic acid converted to oleic acid per minute and per mg of protein. For each inhibitor compound, an IC50 value is determined, compared with the reference enzymatic activity (vehicle 0.1% DMSO). Sterculic acid is the reference inhibitor compound (Gomez F. E., Bauman D. E., Ntambi J. M., Fox B. G. Effects of sterculic acid on stearoyl-CoA desaturase in differentiating […] adipocytes. Biochem Biophys Res Commun. 300 316-326 (2003).
IC50 (SCD-1) [nM],melting point [°C],Compound
1000 to 3000,176,"Cn1ncc(OCC(=O)N2CCC(Oc3cc(C(F)(F)F)ccc3Cl)CC2)cc1=O [Example 24, 5-{2-[4-(2-Chloro-5-trifluoromethyl-phenoxy)-piperidin-1-yl]-2-oxo-ethoxy}-2-methyl-2H-pyridazin-3-one]"
,160,"Cn1nccc(NCC(=O)N2CCC(Oc3cc(F)ccc3F)CC2)c1=O [Example 13, 4-{2-[4-(2,5-Difluoro-phenoxy)-piperidin-1-yl]-2-oxo-ethylamino}-2-methyl-2H-pyridazin-3-one]"
300,,"Cn1nccc(CCC(=O)N2CCC(Oc3cc(C(F)(F)F)ccc3Cl)CC2)c1=O [Example 37, 4-{3-[4-(2-Chloro-5-trifluoromethyl-phenoxy)-piperidin-1-yl]-3-oxo-propyl}-2-methyl-2H-pyridazin-3-one]"
,245 to 260,"Cn1ncc(NCC(=O)N2CCC(Oc3ccccc3C(F)(F)F)CC2)cc1=O [Example 19, 2-Methyl-5-{2-oxo-2-[4-(2-trifluoromethyl-phenoxy)-piperidin-1-yl]-ethylamino}-2H-pyridazin-3-one]"
,192,"CC(=O)c1ccc(F)cc1OC1CCN(C(=O)COc2ccnn(C)c2=O)CC1 [Example 23, 4-{2-[4-(2-Acetyl-5-fluoro-phenoxy)-piperidin-1-yl]-2-oxo-ethoxy}-2-methyl-2H-pyridazin-3-one]"
,126,"Cn1nccc(OCC(=O)N2CCC(Oc3ccccc3OC(F)(F)F)CC2)c1=O [Example 21, 2-Methyl-4-{2-oxo-2-[4-(2-trifluoromethoxy-phenoxy)-piperidin-1-yl]-ethoxy}-2H-pyridazin-3-one]"
,160,"Cn1nccc(NCC(=O)N2CCC(Oc3ccccc3[N+](=O)[O-])CC2)c1=O [Example 15, 2-Methyl-4-{2-[4-(2-nitro-phenoxy)-piperidin-1-yl]-2-oxo-ethylamino}-2H-pyridazin-3-one]"
3000 to 10000,,"CN(CC(=O)N1CCC(Oc2ccccc2Cl)CC1)c1ccnn(C)c1=O [Example 18, 4-({2-[4-(2-Chloro-phenoxy)-piperidin-1-yl]-2-oxo-ethyl}-methyl-amino)-2-methyl-2H-pyridazin-3-one]"
,135,"Cn1nccc(OCC(=O)N2CCC(Oc3ccc(F)cc3Cl)CC2)c1=O [Example 22, 4-{2-[4-(2-Chloro-4-fluoro-phenoxy)-piperidin-1-yl]-2-oxo-ethoxy}-2-methyl-2H-pyridazin-3-one]"
,180,"CC(C)n1nccc(NCC(=O)N2CCC(Oc3ccccc3C(F)(F)F)CC2)c1=O [Example 49, 2-Isopropyl-4-{2-oxo-2-[4-(2-trifluoromethyl-phenoxy)-piperidin-1-yl]-ethylamino}-2H-pyridazin-3-one]"

# Continued, compound first:
Compound,IC50 (SCD-1) [nM],melting point [°C]
"O=C(CNc1ccn[nH]c1=O)N1CCC(Oc2cc(F)c(F)cc2Br)CC1 [Example 43, 4-{2-[4-(2-Bromo-4,5-difluoro-phenoxy)-piperidin-1-yl]-2-oxo-ethylamino}-2H-pyridazin-3-one]",10 to 100,
"Cn1nccc(NCC(=O)N2CCN(C(=O)c3ccccc3C(F)(F)F)CC2)c1=O [Example 30, 2-Methyl-4-{2-oxo-2-[4-(2-trifluoromethyl-benzoyl)-piperazin-1-yl]-ethylamino}-2H-pyridazin-3-one]",,170
"CC(C)CCCn1nccc(NCC(=O)N2CCC(Oc3cc(C(F)(F)F)ccc3Cl)CC2)c1=O [Example 47, 4-{2-[4-(2-Chloro-5-trifluoromethyl-phenoxy)-piperidin-1-yl]-2-oxo-ethylamino}-2-(4-methyl-pentyl)-2H-pyridazin-3-one]",300 to 1000,
"CC#CCn1nccc(NCC(=O)N2CCC(Oc3cc(C(F)(F)F)ccc3Cl)CC2)c1=O [Example 46, 2-But-2-ynyl-4-{2-[4-(2-chloro-5-trifluoromethyl-phenoxy)-piperidin-1-yl]-2-oxo-ethylamino}-2H-pyridazin-3-one]",1000,
"O=C(CNc1ccnn(CCCC(F)(F)F)c1=O)N1CCC(Oc2cc(C(F)(F)F)ccc2Cl)CC1 [Example 45, 4-{2-[4-(2-Chloro-5-trifluoromethyl-phenoxy)-piperidin-1-yl]-2-oxo-ethylamino}-2-(4,4,4-trifluoro-butyl)-2H-pyridazin-3-one]",100 to 1000,
"Cn1ncc(NCC(=O)N2CCC(Oc3cc(F)ccc3Cl)CC2)cc1=O [Example 20, 5-{2-[4-(2-Chloro-5-fluoro-phenoxy)-piperidin-1-yl]-2-oxo-ethylamino}-2-methyl-2H-pyridazin-3-one]",~10000,
"Cn1nccc(NCC(=O)N2CCN(C(=O)c3cc(F)ccc3C(F)(F)F)CC2)c1=O [Example 29, 4-{2-[4-(5-Fluoro-2-trifluoromethyl-benzoyl)-piperazin-1-yl]-2-oxo-ethylamino}-2-methyl-2H-pyridazin-3-one]",,210
"CN(Cc1ccc(Cl)c(Cl)c1)C1CCN(C(=O)CNc2ccnn(C)c2=O)CC1 [Example 28, 4-(2-{4-[(3,4-Dichloro-benzyl)-methyl-amino]-piperidin-1-yl}-2-oxo-ethylamino)-2-methyl-2H-pyridazin-3-one]",,155
"O=C(CNc1ccn[nH]c1=O)N1CCC(Oc2cccc(C(F)(F)F)c2)CC1 [Example 44, 4-{2-[4-(3-trifluoromethyl-phenoxy)-piperidin-1-yl]-2-oxo-ethylamino}-2H-pyridazin-3-one]",100 to 1000,
"C[C@@H](Nc1ccnn(C)c1=O)C(=O)N1CCC(Oc2cc(C(F)(F)F)ccc2Cl)CC1 [Example 38, 4-{(R)-2-[4-(2-Chloro-5-trifluoromethyl-phenoxy)-piperidin-1-yl]-1-methyl-2-oxo-ethylamino}-2-methyl-2H-pyridazin-3-one]",,70
"O=C(CNc1ccn[nH]c1=O)N1CCC(Oc2cc(Cl)ccc2Cl)CC1 [Example 41, 4-{2-[4-(2,5-dichloro-phenoxy)-piperidin-1-yl]-2-oxo-ethylamino}-2H-pyridazin-3-one]",10 to 100,
"CCCCCCCCC1=C(CCCCCCCC(=O)O)C1 [Sterculic acid, reference compound]",300,
"CCCCn1nccc(NCC(=O)N2CCC(Oc3ccccc3Cl)CC2)c1=O [Example 50, 2-Butyl-4-{2-[4-(2-chloro-phenoxy)-piperidin-1-yl]-2-oxo-ethylamino}-2H-pyridazin-3-one]",,82
"Cn1ncc(OCC(=O)N2CCC(Oc3ccc(Cl)cc3Cl)CC2)cc1=O [Example 26, 5-{2-[4-(2,4-Dichloro-phenoxy)-piperidin-1-yl]-2-oxo-ethoxy}-2-methyl-2H-pyridazin-3-one]",,140
"C[C@H](Nc1ccnn(C)c1=O)C(=O)N1CCC(Oc2cc(C(F)(F)F)ccc2Cl)CC1 [Example 39, 4-{(S)-2-[4-(2-Chloro-5-trifluoromethyl-phenoxy)-piperidin-1-yl]-1-methyl-2-oxo-ethylamino}-2-methyl-2H-pyridazin-3-one]",,70
"Cn1nccc(NCC(=O)N2CC(COc3cc(C(F)(F)F)ccc3Cl)C2)c1=O [Example 33, 4-{2-[3-(2-Chloro-5-trifluoromethyl-phenoxymethyl)-azetidin-1-yl]-2-oxo-ethylamino}-2-methyl-2H-pyridazin-3-one]",,174
"O=C(CNc1ccn[nH]c1=O)N1CCC(Oc2cc(Br)ccc2Cl)CC1 [Example 42, 4-{2-[4-(5-Bromo-2-Chloro-phenoxy)-piperidin-1-yl]-2-oxo-ethylamino}-2H-pyridazin-3-one]",10 to 100,
"O=C(CNc1ccnn(Cc2ccccc2)c1=O)N1CCC(Oc2ccccc2C(F)(F)F)CC1 [Example 48, 2-Benzyl-4-{2-oxo-2-[4-(2-trifluoromethyl-phenoxy)-piperidin-1-yl]-ethylamino}-2H-pyridazin-3-one]",1000 to 10000,
